{
  "source": "patent US5908781A",
  "about": "“Monoclonal antibodies to ceftiofur” (The United States of America as represented by the …, priority 1996, dated 1999)",
  "key": {"Cef-68": {"biological_target": "Cef-68", "test": "Competitive indirect ELISA (ciELISA), competitor inhibition of MAb Cef-68 binding", "design": "species or system Balb/c mice", "settings": "for IC50 (ppb) Values for Antibodies, Cef-68: MAb Cef-68, final dilution 1:20, BSA-S-GMBS-Cef-coated plates, value ± standard deviation, average of 3-6 determinations; for binding with MAb Cef-68 (in words): ciELISA cross-reactivity", "experimental": "(§1) The supernatant culture fluid from the cloned hybridomas may also be screened to select for those producing antibodies having a high affinity for ceftiofur. Affinity may be measured using a variety of well known techniques, such as ELISA, RIA or equilibrium dialysis using labeled ceftiofur. […] In accordance with this embodiment, the antibody containing supernatant is added to a ceftiofur or ceftiofur-complex coated substrate such as the wells of a microtiter plate, together with a range of concentrations of free ceftiofur as a competitor. Following incubation and washing, bound antibody in the wells is determined in the same manner as the db-ELISA. Percent inhibition may be calculated as (1-B/Bo)×100, where B is the optical density (OD) of a well with a competitor and Bo is the mean OD of the wells without competitor (control). […] However, for greater accuracy, the affinity may be alternatively measured at 50% inhibition (IC50).\n(§2) Antibodies and ELISA Methods. A standard indirect ELISA method in which the hapten conjugate is immobilized on 96-well microtiter plates was used to evaluate the response of Balb/c mice towards the immunogen KLH-SMCC-desCef. The microtiter immunoplates (PGC Scientifics, Gaithersburg, Md.) were washed three times with a solution of 0.05% (v/v) polyoxyethylene sorbitan monolaurate (TWEEN 20)(Sigma Chemical Co., St. Louis, Mo.) in deionized water (TWEEN 20-water) and then coated with 100 μL of the coating antigen, BSA-SMCC-desCef (100 ng/well) in deionized water. The plates were dried overnight at 37° C. The plates were then washed three times with PBS-9 (0.01M sodium phosphate, 0.15M sodium chloride, pH 9) and the unbound active sites were blocked with 200 μL of 3% (w/v) nonfat milk in PBS-9 for 30 min at 37° C. The plates were washed three times with PBS-9, and 100 μL of supernatant containing the antibody was added to the microtiter plates, which were subsequently incubated for 60 min at 37° C. The unbound antibody was removed by washing the plate five times with TWEEN 20-water. Next, 50 μL of goat anti-mouse IgG-peroxidase conjugate (1:500 dilution)(Sigma Chemical Co., St. Louis, Mo.) was added, followed by incubation of the plates at 37° C. for 60 min. Finally, the plates were washed five times with TWEEN 20-water, 100 μL of K-blue substrate (Elisa Technologies, Lexington, Ky.) was added, and the absorbance was read at 655 nm.\n(§3) For the ciELISA, the plates were prepared as above except that BSA-S-GMBS-Cef was used as the plate-coating antigen. Competitors were prepared in assay buffer (0.1M Tris, 0.15M sodium chloride, 0.01% (w/v) nonfat milk in deionized water, pH 7.75), added to the wells, and diluted in a 2-fold fashion immediately prior to addition of the anticeftiofur monoclonal antibody (Mab). Tissue culture media containing the anticeftiofur MAbs were used at a final dilution of 1:20 and 1:100 (for MAbs Cef-68 and Cef-116, respectively). The following competitors were used in a cross-reactivity study: ceftiofur sodium, cefteram sodium (Hoffmann-La Roche Inc., Nutley, N.J.), ceftriaxone sodium (Hoffmann-La Roche), cefuroxime sodium (Glaxo Man. Serv. Ltd., Barnard Castle, County Durham, England), ceftazidime pentahydrate (Glaxo), amoxicillin, ampicillin sodium, cefaclor, cefadroxil, cefamandole sodium, cefazolin sodium, cefoperazone sodium, cefotaxime sodium, cefoxitin sodium, cefsulodin sodium, cephalothin sodium, cephapirin sodium, cephradine, cloxacillin sodium, and penicillin-G sodium. Except where indicated otherwise, competitors were obtained from Sigma Chemical Co. (St. Louis, Mo.). The competitors were diluted to afford a solution containing a concentration range of 100-1000 ng/well in column 2 of the 96-well microtiter plates. Each competitor was serially diluted across the plate with columns 11 and 12 serving as controls (i.e. no competitor)."}, "Cef-116": {"biological_target": "Cef-116", "test": "Competitive indirect ELISA (ciELISA), competitor inhibition of MAb Cef-116 binding", "design": "species or system Balb/c mice", "settings": "for IC50 (ppb) Values for Antibodies, Cef-116: MAb Cef-116, final dilution 1:100, BSA-S-GMBS-Cef-coated plates, value ± standard deviation, average of 3-6 determinations; for IC50 compared to ceftiofur, MAb Cef-116 (in words): ciELISA cross-reactivity; for fold reduction of binding: MAb Cef-116, printed \"as compared to MAb Cef-68\"", "experimental": "as §1, §2, §3"}},
  "data": [
    {"molecule": "CO/N=C(\\C(=O)N[C@@H]1C(=O)N2C(C(=O)O)=C(COC(C)=O)CS[C@H]12)c1csc(N)n1", "note": "[Cefotaxime, cefotaxime]", "values": [
      {"measurement": "IC50 (ppb) Values for Antibodies, Cef-68", "setting": "Cef-68", "value": "79.67 ± 0.58", "unit": "ppb"},
      {"measurement": "binding with MAb Cef-68 (in words)", "setting": "Cef-68", "value": "observed to bind"},
      {"measurement": "IC50 (ppb) Values for Antibodies, Cef-116", "setting": "Cef-116", "value": "0.48 ± 0.05", "unit": "ppb"},
      {"measurement": "IC50 compared to ceftiofur, MAb Cef-116 (in words)", "setting": "Cef-116", "value": "IC50 values comparable to those observed with ceftiofur"}
    ]},
    {"molecule": "CO/N=C(\\C(=O)N[C@@H]1C(=O)N2C(C(=O)O)=C(Cn3nnc(C)n3)CS[C@H]12)c1csc(N)n1", "note": "[Cefteram, cefteram]", "values": [
      {"measurement": "IC50 (ppb) Values for Antibodies, Cef-68", "setting": "Cef-68", "value": "200.00 ± 10.00", "unit": "ppb"},
      {"measurement": "binding with MAb Cef-68 (in words)", "setting": "Cef-68", "value": "observed to bind"},
      {"measurement": "IC50 (ppb) Values for Antibodies, Cef-116", "setting": "Cef-116", "value": "3.57 ± 0.75", "unit": "ppb"},
      {"measurement": "fold reduction of binding", "setting": "Cef-116", "value": 10, "unit": "fold"}
    ]},
    {"molecule": "CO/N=C(\\C(=O)N[C@@H]1C(=O)N2C(C(=O)O)=C(CSC(=O)c3ccco3)CS[C@H]12)c1csc(N)n1", "note": "[Ceftiofur, ceftiofur]", "values": [
      {"measurement": "IC50 (ppb) Values for Antibodies, Cef-68", "setting": "Cef-68", "value": "32.33 ± 0.58", "unit": "ppb"},
      {"measurement": "IC50 (ppb) Values for Antibodies, Cef-116", "setting": "Cef-116", "value": "0.33 ± 0.05", "unit": "ppb"}
    ]},
    {"molecule": "CO/N=C(\\C(=O)N[C@@H]1C(=O)N2C(C(=O)O)=C(CSc3nc(=O)c(=O)[nH]n3C)CS[C@H]12)c1csc(N)n1", "note": "[Ceftriaxone, ceftriaxone]", "values": [
      {"measurement": "IC50 (ppb) Values for Antibodies, Cef-68", "setting": "Cef-68", "value": "38.67 ± 8.62", "unit": "ppb"},
      {"measurement": "binding with MAb Cef-68 (in words)", "setting": "Cef-68", "value": "observed to bind"},
      {"measurement": "IC50 (ppb) Values for Antibodies, Cef-116", "setting": "Cef-116", "value": "0.33 ± 0.05", "unit": "ppb"},
      {"measurement": "IC50 compared to ceftiofur, MAb Cef-116 (in words)", "setting": "Cef-116", "value": "IC50 values comparable to those observed with ceftiofur"}
    ]},
    {"molecule": "CO/N=C(\\C(=O)N[C@@H]1C(=O)N2C(C(=O)O)=C(COC(N)=O)CS[C@H]12)c1ccco1", "note": "[Cefuroxime, cefuroxime]", "values": [
      {"measurement": "IC50 (ppb) Values for Antibodies, Cef-116", "setting": "Cef-116", "value": "406.67 ± 130.13", "unit": "ppb"},
      {"measurement": "fold reduction of binding", "setting": "Cef-116", "value": 100, "unit": "fold"}
    ]}
  ]
}
